Source: patent publication US20160120950A1, “Pharmaceutical Formulations Comprising Incretin Mimetic Peptide and Aprotic Polar Solvent” (Amylin Pharmaceuticals, LLC, priority 2008, published 2016)

Columns and labels:
cloned GLP-1 receptor = settings: cells transfected with the cloned GLP-1 receptor; cited from earlier work
[1] = Stability of exendin-4 in DMSO and DMSO/0.5% water, SEC-HPLC potency (Example 1); format: physicochemical; settings: in DMSO and DMSO with 0.5% water, up to 6 months at 5, 25, 40° C.
Method: (§1) The stability of exendin-4 in DMSO and DMSO with 0.5% water added may be evaluated as follows. The evaluation may be based on the stability of exendin-4 samples stored at 5, 25, and 40° C. for up to 6 months. Further, the stability of exendin-4 in DMSO, as compared to aqueous buffers at a pH of 4.5 may be evaluated.
(§2) Three HPLC methods may be used to analyze the samples: size exclusion HPLC (SEC-HPLC) to determine potency (mg/ml) and two methods to evaluate purity (%), a strong cation exchange (SCX) method and a reversed-phase (RP) method. The methods may be adapted as necessary to achieve appropriate sample analysis. Additionally, the water content of the samples may be evaluated using a suitable Karl Fischer analytical procedure.
For example, SEC-HPLC can be used to measure the potency of an exendin-4 solution by external standard assay, based on total peptide content of the exendin-containing solution at 214 nm, as compared to qualified reference standard solutions. The identity, potency and label strength of exendin-4 can be established by comparison of the retention times of the exendin-4 peaks in the sample and reference standard solutions.
For a six-month delivery period, approximately 3600 μg of exendin-4 may be desirable based on a 20 μg/day dose. Assuming a representative delivery reservoir of approximately 150 μL, a concentration of about 25 mg/mL may be desirable. […]

[2] = Stability of exendin-4 in DMSO, DMSO/0.5% water and aqueous buffer pH 4.5, SCX-HPLC purity (Example 1); format: physicochemical; settings: FIGS. 3 and 4, 25° C. and 40° C.
Method: as §1, §2
For a six-month delivery period, approximately 3600 μg of exendin-4 may be desirable based on a 20 μg/day dose. Assuming a representative delivery reservoir of approximately 150 μL, a concentration of about 25 mg/mL may be desirable. Further, proteins and peptides are commonly lyophilized and often include some residual moisture. As such, the effect of water on peptide stability may be investigated, and samples may be prepared in neat DMSO and in DMSO with 0.5% water added.
This concentration of water will depress the 18.6° C. freezing point of DMSO to only about 17.5° C. […]

[3] = Stability of exendin-4 in DMSO formulations, text summary of SCX- and RP-HPLC purity (Example 1, FIGS. 1 and 2); format: physicochemical
Method: as §1, §2
More particularly, 25 mg/mL samples of exendin-4 in neat DMSO and DMSO/0.5% water are prepared in N2 atmosphere and held at 5, 25, and 40° C. for 6 months (abbreviated as “mos.”).
Exendin-4 may be formulated in DMSO and DMSO spiked with 0.5% water. […] Exendin-4 purity is reduced about 28% from initial values after 6 months at 40° C. At 25° C., the purity is decreased about 3 to 4% over the same time period. (See FIGS. 1 and 2). However, at 5° C. the purity remains within 0.4 to 0.6% of initial purity values. […] By comparison to aqueous product stability (FIGS. 3 and 4), it is apparent that exendin-4 stability is improved in the aprotic, polar solvent DMSO.

[4] = Exendin-4 stability in aprotic, polar solvent systems, SCX-Purity (Example 2); format: physicochemical; settings: 10% w/w water (0.67 mole fraction DMSO)
Method: The stability of exendin-4 in other aprotic, polar solvents and in DMSO-based co-solvent systems may also be evaluated. The evaluation may be based on the stability of exendin-4 samples stored at 5, 25, and 37° C. for up to 6 months. In addition to dimethyl sulfoxide (DMSO), solvents for evaluation include water, dimethyl acetamide (DMA), dimethyl formamide (DMF), N-methylpyrrolidone (NMP), Propylene carbonate, and ethyl acetate.
as §2, with “The methods may be adapted as necessary to achieve appropriate sample analysis.” left out
Nonaqueous Solvents: The stability of exendin-4 in aprotic, polar solvents with freezing points lower than 0° C. may be evaluated. […]
Co-solvent System with Water: Water at approximately 8% w/w depresses the freezing point of DMSO to just below 0° C. To provide additional protection against freezing, a 10% w/w water solution may be evaluated. […]
Co-solvent Systems with Aprotic, Polar Solvents: Other solvents can also be used to depress the freezing point of DMSO. […] Appropriate amounts of the non-aqueous solvent may first be determined. Next the solubility of exendin-4 may be evaluated by visual inspection in the co-solvent mixture. […]

changes in potency [1]	stability in DMSO by comparison to aqueous product stability [2]	difference due to the presence of 0.5% water ([3]; DMSO vs DMSO spiked with 0.5% water)	purity reduced from initial values ([3]; in DMSO and DMSO with 0.5% water, 6 months at 40° C.)	stability of exendin-4 in DMSO solvent solution containing 10% w/w water [4]	Substance	activity at the cloned GLP-1 receptor (cAMP) (cloned GLP-1 receptor)
–	–	–	–	–	exendin[9-39]	antagonist
Essentially no changes	improved	no substantial difference	about 28%	enhanced	Exendin-4	agonist
